Laboratory results: patent US9278118B2, “Pharmaceutical combination for the treatment and/or chemosensibilization of refractory tumors to anticancer drugs” (Centro de Ingenieria Genetica Y Biotecnologia, priority 2006, dated 2016)
Where two headings read alike, the source gives them in different places.

How the values were obtained:
H-125 or OCI-AML3 cells = assay: Cell viability (MTS) assay, simultaneous P15 peptide + cytostatic drug, 72 hours; assay type: cell-based, human
Method: Finally, the cell viability and the IC50 values were determined as above described in this invention.

H-125 cells = assay: Cell viability (MTS) assay, sequential: P15 pre-treatment, then cytostatic drug
SW948 cells [1] = assay: Cell viability (MTS) assay, P15 pre-treatment on intrinsic drug-refractory tumor cells; assay type: cell-based, human
SW948 cells [2] = assay: In vivo chemosensibilization, SW948 tumors in nude mice, sequential administration; settings: P15 0.5 mg/kg/day i.p. 5 days, then cytostatic 5 mg/kg/day 5 days, FIG. 2A-2C
Method: (§1) The animal model used in this invention was based on the implantation of human tumors in nude mice (Nu/Nu, BalBC). Briefly, 5×10^6 H-125 or OCI-AML3 cells were suspended in Phosphate Buffer Solution (PBS) and inoculated subcutaneously. After tumor debut (approx. 30 mm^3), treatment was started using the pharmaceutical combination described in this invention. To evaluate the antitumor effect of the pharmaceutical combination, the tumor mass volume was measured and the respective volume was calculated using the formule: V=widght^2×lenght/2.
For this purpose, 5×10^6 SW948 cells were implanted in nude mice as previously described in this invention. After tumor debut the pharmaceutical combination was sequentially administered as follow: First, the P15 peptide ingredient was administered intraperitoneal at 0.5 mg/kg/day during 5 days. Subsequently, cisplatin (FIG. 2A), Paclitaxel (FIG. 2B) and doxorubicin (FIG. 2C) were administered at 5 mg/kg/day during further 5 days. […] These findings also provide the evidences that the pharmaceutical combination in this invention is able to bypass the commonly observed intrinsic tumor resistance when the ingredients are sequentially administered.

[3] = system: H-125 or OCI-AML3 tumor cells; assay: Cancer animal model, human tumor xenografted in nude mice, simultaneous administration; assay type: in vivo, nude mice (Nu/Nu, BalBC); settings: for antitumor effect (tumor volume): cytostatic 1 mg/kg/day i.p. concomitantly with P15 0.5 mg/kg/day i.p., 5 days, FIG. 1A-1C
Method: as §1, with “Briefly, 5×10^6 H-125 or OCI-AML3 cells were suspended in Phosphate Buffer Solution (PBS) and inoculated subcutaneously.” left out
After tumor debut, the ingredients of the pharmaceutical combination were administered as follow: The P15 peptide in saline solution was administered intraperitoneal at 0.5 mg/kg/day during 5 days. Concomitantly, intraperitoneal injection of cisplatin (FIG. 1A), or cyclophosphamide (FIG. 1B) or Mitomycin (FIG. 1C) were performed at 1 mg/kg/day in the same frequency. The cytostatic drugs are also solved in saline solution. Tumor volume was registered as described above in this invention.

[4] = H-125 or OCI-AML3 cells, 72 hours, simultaneous P15 50 μM, read-out: IC50, Cytostatic drug + P15 (50 μM)
[5] = Homo sapiens, H-125 or OCI-AML3 cells, 72 hours, no P15, read-out: IC50, Cytostatic drug alone
[6] = read-out: IC50, Cytostatic drug + P15 (10 μM), H-125 or OCI-AML3 cells, 72 hours, simultaneous P15 10 μM
[7] = Homo sapiens, NCI-H125, read-out: IC50, Cytostatic drug alone
[8] = H-125 or OCI-AML3 cells, 72 hours, no P15, read-out: IC50, Cytostatic drug alone
[9] = read-out: IC50, Cytostatic drug alone, H-125 cells, 72 hours, no P15 pre-treatment

Row | SMILES | IC50 (H-125 or OCI-AML3 cells; [4]) | IC50 (H-125 or OCI-AML3 cells; [5]) | IC50 (H-125 or OCI-AML3 cells; [6]) | IC50 (H-125 cells; [7]) | antitumor effect (tumor volume) [3] | also measured
1 | Nc1nc(F)nc2c1ncn2[C@@H]1O[C@H](CO)[C@@H](O)[C@@H]1O [Fludarabine, fludarabine] | 50 nM | 870 nM | 96 nM | 865 nM | – | –
2 | CC(=O)O[C@H]1C(=O)[C@@]2(C)[C@H]([C@H](OC(=O)c3ccccc3)[C@]3(O)C[C@H](OC(=O)[C@H](O)[C@@H](NC(=O)c4ccccc4)c4ccccc4)C(C)=C1C3(C)C)[C@]1(OC(C)=O)CO[C@@H]1C[C@@H]2O [Paclitaxel, paclitaxel] | 3 nM | 17 nM | 8 nM | 17 nM | – | IC50 (SW948 cells [1]; Homo sapiens, P15 pre-treatment, read-out: IC50, Cytostatic drug + P15 pre-treatment): 97 µM; IC50 (SW948 cells [1]; Homo sapiens, no P15 pre-treatment, read-out: IC50, Cytostatic drug alone): ≥ 1000 µM; chemosensibilization in vivo (tumor response to cytostatic) (SW948 cells [2]): revert the chemorefractory phenotype
3 | CO[C@@]12[C@H](COC(N)=O)C3=C(C(=O)C(C)=C(N)C3=O)N1C[C@@H]1N[C@@H]12 [Mitomycin C, mitomycin C] | 9 nM | 994 nM | 93 nM | 994 nM | complete tumor regression | –
4 | N.N.[Cl][Pt][Cl] [Cisplatin, cisplatin] | 40 nM | – | 530 nM | – | complete tumor regression | IC50 (SW948 cells [1]; P15 pre-treatment, read-out: IC50, Cytostatic drug + P15 pre-treatment): 120 µM; IC50 (SW948 cells [1]; no P15 pre-treatment, read-out: IC50, Cytostatic drug alone): ≥ 1000 µM; IC50 (H-125 or OCI-AML3 cells; [8]): 720 nM; chemosensibilization in vivo (tumor response to cytostatic) (SW948 cells [2]): revert the chemorefractory phenotype; IC50 (H-125 cells; [9]): 720 nM
5 | CC[C@]1(O)C[C@H]2CN(CCc3c([nH]c4ccccc34)[C@@](C(=O)OC)(c3cc4c(cc3OC)N(C=O)[C@H]3[C@@](O)(C(=O)OC)[C@H](OC(C)=O)[C@]5(CC)C=CCN6CC[C@]43[C@@H]65)C2)C1 [Vincristin, vincristin] | 8 nM | 856 nM | 100 nM | 856 nM | – | –
6 | O=P1(N(CCCl)CCCl)NCCCO1 (stereo not drawn) [Cyclophosphamide, cyclophosphamide] | – | – | – | 2400 nM | complete tumor regression | IC50 (H-125 or OCI-AML3 cells; Homo sapiens, 72 h, read-out: IC50, Cytostatic drug alone): 2400 nM; IC50 (H-125 or OCI-AML3 cells; read-out: IC50, Cytostatic drug + P15 (10 μM)): 1000 nM; IC50 (H-125 or OCI-AML3 cells; read-out: IC50, Cytostatic drug + P15 (50 μM)): 85 nM; IC50 (H-125 cells; read-out: IC50, Cytostatic drug + P15 pre-treatment): 100 nM
7 | N.N.O=C([O-])C1(C(=O)[O-])CCC1.[Pt+2] [Carboplatin, carboplatin] | 36 nM | – | 70 nM | – | – | IC50 (H-125 or OCI-AML3 cells; [8]): 650 nM; interaction with P15, antitumor effect in vivo ([3]; administered along with P15, FIG. 4): synergistic interactions; IC50 (H-125 cells; [9]): 450 nM
